Positions of bridges follow the written chain, without caps; N, C: chain ends. Non-standard residues stand in square brackets, D forms with d. Residues, ends and D or L forms follow the SMILES beside them. Mpa = O=C(O)CCS
Tests used:
[1] = Oxytocic activity in rat uterus in absence of Mg2+; assay type: functional
[2] = Oxytocic activity in rat uterus in presence of Mg2+; assay type: functional
[3] = Retardation factor of the compound in ethyl acetate-pyridine-acetic acid-water (5:5:1:3 v/v) by TLC analysis; assay type: physicochemical; settings: buffer
Rattus norvegicus [4] = species: Rattus norvegicus; assay: Ratio of antidiuretic activity in rat to vasopressor activity in rat; parameters: species or system Urine
Rattus norvegicus [5] = species: Rattus norvegicus; assay: Vasopressor activity in rat; assay type: organism-based; settings: in vivo
[6] = Retardation factor of the compound in butan-1-ol-water (1:1 v/v) by TLC analysis; assay type: physicochemical; settings: buffer
[7] = Retardation factor of the compound in butan-1-ol-acetic acid-water (4:1:5 v/v) by TLC analysis; assay type: physicochemical; settings: buffer
Rattus norvegicus [8] = assay: Antidiuretic activity in iv dosed rat; assay type: functional, Urine
Rattus norvegicus [9] = assay: Antidiuretic activity in sc dosed Brattleboro rat assessed as spontaneous urine output measured every 1 hr for 24 hrs; assay type: functional
Rattus norvegicus [10] = species: Rattus norvegicus; assay: Ratio of antidiuretic activity in Brattleboro rat to vasopressor activity in rat; parameters: species or system Urine

Structure (SMILES)	Activity [1] [U/mg]	Activity [2] [U/mg]	Rf [3]	Ratio (Rattus norvegicus [4])	Activity (Rattus norvegicus [5]) [U/mg]	Rf [6]	Rf [7]	Activity (Rattus norvegicus [8]) [U/mg]	Activity (Rattus norvegicus [9]) [U/mg]	Ratio (Rattus norvegicus [10])
N=C(N)NCCC[C@H](NC(=O)[C@@H]1CCCN1C(=O)[C@@H]1CSSCCC(=O)N[C@@H](Cc2ccc(O)cc2)C(=O)N[C@@H](Cc2ccccc2)C(=O)N[C@@H](CCC(N)=O)C(=O)N[C@@H](CC(N)=O)C(=O)N1)C(=O)NCC(N)=O [DESMOPRESSIN]	54	167	–	–	–	–	–	–	–	–
CC(C)[C@@H]1NC(=O)[C@H](Cc2ccccc2)NC(=O)[C@H](Cc2ccc(O)cc2)NC(=O)[C@@H](O)CSSC[C@@H](C(=O)N2CCC[C@H]2C(=O)N[C@H](CCCN=C(N)N)C(=O)NCC(N)=O)NC(=O)[C@H](CC(N)=O)NC1=O	1.1	2.8	0.85	>45000	< 0.02	0.48	0.68	892	–	–
CC(C)[C@@H]1NC(=O)[C@H](Cc2ccccc2)NC(=O)[C@H](Cc2ccc(O)cc2)NC(=O)CCSSC[C@@H](C(=O)N2CCC[C@H]2C(=O)N[C@H](CCCNC(=N)N)C(=O)NCC(N)=O)NC(=O)[C@H](CC(N)=O)NC1=O ([Mpa]YFVNCP[dR]G-NH2; disulfide 1-6)	8	2	–	–	< 0.01	–	–	–	1230	>123000
NC(=O)CC[C@@H]1NC(=O)[C@H](Cc2ccccc2)NC(=O)[C@H](Cc2ccc(O)cc2)NC(=O)[C@@H](O)CSSC[C@@H](C(=O)N2CCC[C@H]2C(=O)N[C@@H](CCCN=C(N)N)C(=O)NCC(N)=O)NC(=O)[C@H](CC(N)=O)NC1=O	31	96	0.68	0.9	549	0.22	0.45	467	–	–
NC(=O)CC[C@@H]1NC(=O)[C@H](Cc2ccccc2)NC(=O)[C@H](Cc2ccc(O)cc2)NC(=O)[C@@H](O)CSSC[C@@H](C(=O)N2CCC[C@H]2C(=O)N[C@H](CCCN=C(N)N)C(=O)NCC(N)=O)NC(=O)[C@H](CC(N)=O)NC1=O	4.3	2.6	0.68	1030	0.86	0.22	0.45	886	–	–
CC(C)[C@@H]1NC(=O)[C@H](Cc2ccccc2)NC(=O)[C@H](Cc2ccc(O)cc2)NC(=O)[C@@H](N)CSSC[C@@H](C(=O)N2CCC[C@H]2C(=O)N[C@H](CCCN=C(N)N)C(=O)NCC(N)=O)NC(=O)[C@H](CC(N)=O)NC1=O	0.6	0.9	–	17650	0.037	–	–	653	–	–
NC(=O)CC[C@@H]1NC(=O)[C@H](Cc2ccccc2)NC(=O)[C@H](Cc2ccc(O)cc2)NC(=O)[C@@H](N)CSSC[C@@H](C(=O)N2CCC[C@H]2C(=O)N[C@@H](CCCN=C(N)N)C(=O)NCC(N)=O)NC(=O)[C@H](CC(N)=O)NC1=O [VASOPRESSIN]	16	57	–	–	382	–	–	–	330	0.9
